# Results reported in patent US20200061087A1, “Inhibiting the Fungal Cell-Surface Phospate Transporter PHO84” (Children's Medical Center Corporation, priority 2017, published 2020).
# Legend:
# [1] = tested on: human peripheral blood derived neutrophils incubated with C. albicans; type: cell-based; details: neutrophils pretreated with different concentrations of NAC (up to 10 mM); 90 min, M.O.I. 2; dose-dependent; FIG. 12D
# Description: To examine whether in fact ROS are responsible for pho84−/− null cells' increased susceptibility to neutrophils' cidal activity, Candida-ingesting neutrophils were treated with the ROS-scavenging compound N-acetyl cysteine (NAC).
# [2] = tested on: C. albicans wild type, pho84−/− null and reintegrant cells; assay: Growth in YPD with oxidative stressors (OD600); type: cell-based, Candida albicans; details: 25 μM plumbagin, 40 μM menadione, 40 mM H2O2, FIG. 16A
# Description: FIGS. 16A and 16B depict data showing that resistance to oxidative stressors is decreased, and Hog1 phosphorylation is increased in cells lacking PHO84. In FIG. 16A, overnight cultures were washed with normal saline and diluted to YPD with vehicle, 25 μM plumbagin, 40 μM menadione, and 40 mM H2O2 to OD600 0.1. OD600 was monitored every 15 minutes for strains +/+ (PHO84/PHO84), JKC915; −/− (pho84/pho84), JKC1450 and −/−/+(pho84/pho84::PHO84), JKC1588. FIG. 16B depicts a Western blot of cells incubated in YPD containing 5 mM H2O2 for 5 min, 10 min, 20 min, 30 min and 40 min. The membrane was probed for P-Hog1, total Hog1, and loading controls PSTAIRE and Histone H3. Strains, +/+ (PHO84/PHO84), JKC915; −/− (pho84/pho84), JKC1450 and −/−/+ (pho84/pho84::PHO84), JKC1588. FIGS. 16A and 16B show representatives of at least 3 biological replicates.
# For cell dilutions spotted onto agar media as previously described (20), saturated overnight cultures were diluted in 5-fold steps from an OD600 of 0.5. For growth curves in liquid media, saturated overnight cultures in YPD were washed once in 0.9% NaCl and diluted to an OD600 of 0.15 in 150 μl medium in flat bottom 96-well dishes. For growth assays including those during drug exposure, OD600 readings were obtained every 15 min in a plate reader and standard deviations of 3 technical replicates were calculated and graphed in Graphpad Prism. Growth during drug exposure was assayed in SC medium. Vehicle for Pho84 inhibitors PAA (Sigma, 284270) and Fos (Santa Cruz Biotechnology, # SC-253593A) was water and for amphotericin B (Sigma, A9528), DMSO. All panels shown represent at least 3 biological replicates.
# [3] = tested on: C. albicans wild type PHO84/PHO84 and pho84/pho84 null cells; assay: Growth curves in liquid SC medium (OD600) during exposure to Pho84 inhibitors; type: cell-based, Candida albicans; details: wild type vs pho84−/− null; 1 and 4 mM PAA or 200 and 400 μM foscarnet; SC with 0.22 or 11 mM KH2PO4, 30° C.; FIG. 10A, B
# Description: FIGS. 10A-10D depict data showing that Foscarnet inhibits Pho84 in competition with Pi. Wild type PHO84/PHO84 (+/+, dark blue) (JKC915) and pho84/pho84 null (−/−, light blue) (JKC1450) cells were exposed to 1 and 4 mM PAA (FIG. 10A) or 200 and 400 μM foscarnet (FIG. 10B), and growth in SC medium with 0.22 mM or 11 mM KH2PO4 at 30° C. was monitored automatically every 15 minutes. FIGS. 10A and 10B are representative of 3 biological replicates; error bars show SD. FIG. 10C depicts a filamentation assay: in order to maximize reproducibility between replicate experiments, cells of wild type strain SC5314 were suspended in 0.9% NaCl to an OD600 of 0.1; then 3 μl of the suspension was spotted at equidistant points, using a template, around a Spider agar plate containing vehicle or 500 μM foscarnet. Spot edges were imaged to show the length and density of filaments extending from the edge of the spot into the agar medium. Scale bar 1 mm. […] OD600 was monitored automatically every 15 minutes. […]
# For cell dilutions spotted onto agar media as previously described (20), saturated overnight cultures were diluted in 5-fold steps from an OD600 of 0.5. […] For growth assays including those during drug exposure, OD600 readings were obtained every 15 min in a plate reader and standard deviations of 3 technical replicates were calculated and graphed in Graphpad Prism. […]
# [4] = tested on: C. albicans wild type (SC5314); assay: Potentiation of antifungals, growth curves (OD600) in SC with 0.5 mM KH2PO4; type: cell-based, Candida albicans; details: 500 μM Fos plus 0.2 μg/ml amphotericin B; 8 mM PAA plus 0.25 μg/ml amphotericin B; 30° C.; FIG. 4C, 10D
# Description: FIGS. 4A-4D depict data showing that small-molecule inhibition of Pho84 represses TORC1 and hyphal morphogenesis, and potentiates amphotericin B and micafungin antifungal activity. FIG. 4A depicts a Western blot of wild type (wt) (SC5314) cells with (1) vehicle, (2) 100 μM foscarnet (Fos), (3) 200 μM Fos, (4) 400 μM Fos, and strains (5, 7, 9, 11) PHO84+/+(JKC915), (6, 8) pho84−/+ (JKC1583) and (10, 12) pho84−/− (JKC1450), grown in standard SC (7.3 mM Pi) for 60 min, probed for P-S6 and tubulin. […] FIG. 4C depicts Wt (SC5314) exposed to vehicle, 500 μM Fos, 0.2 μg/ml amphotericin B, and amphotericin B plus Fos; OD600 in SC with 0.5 mM KH2PO4 at 30° C. monitored every 15 minutes. FIG. 4D depicts Wt (SC5314) exposed to vehicle, 500 μM Fos, 25 ng/ml micafungin, and micafungin plus Fos; OD600 in SC with 0.5 mM KH2PO4 at 30° C. monitored every 15 minutes.
# FIGS. 10A-10D depict data showing that Foscarnet inhibits Pho84 in competition with Pi. Wild type PHO84/PHO84 (+/+, dark blue) (JKC915) and pho84/pho84 null (−/−, light blue) (JKC1450) cells were exposed to 1 and 4 mM PAA (FIG. 10A) or 200 and 400 μM foscarnet (FIG. 10B), and growth in SC medium with 0.22 mM or 11 mM KH2PO4 at 30° C. was monitored automatically every 15 minutes. […] OD600 was monitored automatically every 15 minutes. […]
# [5] = tested on: TORC1 (Rps6 phosphorylation); assay: Western blot for phosphorylated ribosomal protein S6 (P-S6) as readout of TORC1 activity; type: cell-based, Candida albicans; details: FIG. 4A
# Description: FIGS. 4A-4D depict data showing that small-molecule inhibition of Pho84 represses TORC1 and hyphal morphogenesis, and potentiates amphotericin B and micafungin antifungal activity. FIG. 4A depicts a Western blot of wild type (wt) (SC5314) cells with (1) vehicle, (2) 100 μM foscarnet (Fos), (3) 200 μM Fos, (4) 400 μM Fos, and strains (5, 7, 9, 11) PHO84+/+(JKC915), (6, 8) pho84−/+ (JKC1583) and (10, 12) pho84−/− (JKC1450), grown in standard SC (7.3 mM Pi) for 60 min, probed for P-S6 and tubulin. FIG. 4B depicts Wt (SC5314) spotted at equidistant points around RPMI agar (0.22 mM KH2PO4, pH 7) containing vehicle, 8 mM phosphonoacetic acid (PAA), or 500 μM Fos, grown at 37° C., and spot edges imaged. Compare with FIG. 7A. Bar 1 mm. FIG. 4C depicts Wt (SC5314) exposed to vehicle, 500 μM Fos, 0.2 μg/ml amphotericin B, and amphotericin B plus Fos; OD600 in SC with 0.5 mM KH2PO4 at 30° C. monitored every 15 minutes. FIG. 4D depicts Wt (SC5314) exposed to vehicle, 500 μM Fos, 25 ng/ml micafungin, and micafungin plus Fos; OD600 in SC with 0.5 mM KH2PO4 at 30° C. monitored every 15 minutes.
# Cell harvesting, lysis, Western blotting and densitometry were performed as described in Chowdhury T & Köhler JR (2015) Ribosomal protein S6 phosphorylation is controlled by TOR and modulated by PKA in Candida albicans. Molecular Microbiology 98(2):384-402. At least three biological replicates were obtained for each experiment shown.
# [6] = tested on: ROS content of wild type (SC5314) cells; assay: DCFDA detectable ROS measurement; type: cell-based, Candida albicans; details: wild type cells unexposed to external oxidative stressors; 500 microM foscarnet or 1 mM PAA, 1 hour; FIG. 20C
# Description: FIGS. 20A-20D depict data showing that TORC1 activity contributes to ROS management and Sod3 expression. FIG. 20A depicts dichlorodihydrofluorescein diacetate (DCFDA) detectable ROS measurement of strains, (1) PHO84/PHO84 containing vector (JKC1594), (2) pho84/pho84 containing vector (JKC1598), (3) PHO84/PHO84 overexpressing GTR1 (JKC1596), (4) pho84/pho84 overexpressing GTR1 (JKC1600). Cells cultured overnight in YPD were diluted into SC medium (Loflo) with vehicle or 8 ng/ml rapamycin for 1 hour, and fluorescence intensity was determined at excitation-485 nm and emission wavelength 528 nm after staining cells with 50 μM DCFDA. p=0.0252 for ratio of pho84−/− with vector and pho84−/− overexpressing GTR1 versus ratio of wild type with vector and wild type overexpressing GTR1; all cells exposed to vehicle. p=0.0014 for ratio of pho84−/− with vector and pho84−/− overexpressing GTR1 versus ratio of wild type with vector and wild type overexpressing GTR1; all cells exposed to rapamycin. p values calculated using Student's t-test. […] In FIG. 20C, wild type (SC5314) cells were exposed to vehicle, 500 microM foscarnet or 1 mM PAA for 1 hour, and fluorescence intensity was determined at excitation-485 nm and emission wavelength 528 nm after staining cells with 50 μM DCFH-DA. p<0.001 for both 500 microM foscarnet versus vehicle and 1 mM PAA versus vehicle. […]
smiles,measurement,setting,value
"CC(=O)N[C@@H](CS)C(=O)O [NAC, N-acetyl cysteine]",Hypersensitivity of pho84−/− null cells to neutrophil killing,[1],rescued hypersensitivity of pho84−/− null cells to neutrophil killing
CC1=CC(=O)c2c(O)cccc2C1=O [plumbagin],Growth inhibition of pho84−/− null mutant compared with wild type,[2],inhibited growth of the mutant more strongly than that of the wild type
"OO [H2O2, hydrogen peroxide]",Growth inhibition of pho84−/− null mutant compared with wild type,[2],inhibited growth of the mutant more strongly than that of the wild type
"O=C(O)P(=O)(O)O [Fos, phosphonoformic acid]",C. albicans growth inhibition in dependence on Pho84,[3],inhibit C. albicans growth in dependence on the presence of their target Pho84
same,Potentiation of amphotericin B antifungal activity,[4],potentiate activity of the antifungal amphotericin B
same,Rps6 phosphorylation (P-S6),[5]; heterozygous pho84−/+ cells (JKC1583),P-S6 was hypersensitive to Fos
same,Rps6 phosphorylation (P-S6),[5]; pho84−/− cells lacking the target (JKC1450),did not further decrease the P-S6 signal
same,Rps6 phosphorylation (P-S6),"[5]; wild type (SC5314) cells, 100, 200, 400 μM Fos, SC (7.3 mM Pi), 60 min",inhibited Rps6 phosphorylation (PS6) in a dose-dependent manner
same,ROS content (DCFDA detectable),[6],increased the ROS content of wild type cells
CC1=CC(=O)c2ccccc2C1=O [menadione],Growth inhibition of pho84−/− null mutant compared with wild type,[2],inhibited growth of the mutant more strongly than that of the wild type
"O=C(O)CP(=O)(O)O [PAA, phosphonoacetic acid]",C. albicans growth inhibition in dependence on Pho84,[3],inhibit C. albicans growth in dependence on the presence of their target Pho84
same,Potentiation of amphotericin B antifungal activity,[4],potentiate activity of the antifungal amphotericin B
same,ROS content (DCFDA detectable),[6],increased the ROS content of wild type cells
